This passage reports ED50 results from patent publication EP0970067B1, “(METHYLSULFONYL)PHENYL-2-(5H)-FURANONES WITH OXYGEN LINK AS COX-2 INHIBITORS” (Merck Frosst Canada & Co., priority 1997, dated 1998).

The assay relates to Rat Paw Edema. Put plainly: Rat paw edema assay (carrageenan-induced). The assay is classed as in vivo, Male Sprague-Dawley rats. The note with it: po, 1 hr before subplantar carrageenan, paw volume measured three hr later. The protocol: Male Sprague-Dawley rats (150-200 g) are fasted overnight and are given, po, either vehicle (1% methocel or 5% Tween 80) or a test compound. One hr later, a line is drawn using a permanent marker at the level above the ankle in one hind paw to define the area of the paw to be monitored. The paw volume (V0) is measured using a plethysmometer (Ugo-Basile, Italy) based on the principle of water displacement. The animals are then injected subplantarly with […] of 1% carrageenan solution in saline (FMC Corp, Maine) into the paw using an insulin syringe with a 25-gauge needle (i.e. […] carrageenan per paw). Three hr later, the paw volume (V3) is measured and the increases in paw volume (V3 - VO) are calculated. The animals are sacrificed by CO2 asphyxiation and the absence or presence of stomach lesions scored. Data is compared with the vehicle-control values and percent inhibition calculated. All treatment groups are coded to eliminate observer bias.
(In general: In the carrageenan paw model, swelling and tenderness develop within hours.)

As usually defined, the ED50 is the dose at which the effect has come halfway, by size or by number of responders. A lower ED50 goes with greater potency. `CC1(C)OC(=O)C(OCC2(CF)CC2)=C1c1ccc(S(C)(=O)=O)cc1` [Example 23, 3-{[1-(fluoromethyl)cyclopropyl]methoxy}-5,5-dimethyl-4-(4-methylsulfonylphenyl)-5H-furan-2-one] showed an ED50 of 5.9 mg/kg. Under `CC1(C)OC(=O)C(OC(C(F)(F)F)C(F)(F)F)=C1c1ccc(S(C)(=O)=O)cc1` [Example 2, 5,5-Dimethyl-3-(1,1,1,3,3,3-hexafluoropropoxy)-4-(4-methylsulfonyl-phenyl)-5H-furan-2-one] stands 1 mg/kg; under `C#CC(C)OC1=C(c2ccc(S(C)(=O)=O)cc2)C(C)(C)OC1=O` (stereo not drawn) [Example 3, 5,5-Dimethyl-3-((1-methyl-2-propynyl)oxy)-4-(4-methylsulfonylphenyl)-5H-furan-2-one], 2.4 mg/kg.
